Measurements published in patent US20090005373A1, “SUBSTITUTED SULFONAMIDO-MACROCYCLES AS TIE2 INHIBITORS AND SALTS THEREOF, PHARMACEUTICAL COMPOSITIONS COMPRISING SAME, METHODS OF PREPARING SAME AND USES OF SAME” (priority 2006, published 2009).

Legend:
Type in all cases: biochemical
Tie-2 = target: T1, Tie-2 (Homo sapiens, UniProt Q02763); experiment: Tie-2-Kinase HTRF-Assay without Kinase Preactivation (assay 2); settings: 10 μM ATP, no kinase preactivation
T1 construct: A recombinant fusion protein of GST and the intracellular domains of Tie-2, expressed in insect cells (Hi-5); GST; made in house; host or cells: Hi-5 insect cells
Source text: Tie2-inhibitory activity of compounds of the present invention was quantified employing two Tie2 HTRF assay as described in the following paragraphs.
A recombinant fusion protein of GST and the intracellular domains of Tie-2, expressed in insect cells (Hi-5) and purified by Glutathion-Sepharose affinity chromatography was used as kinase. Alternatively, commercially available GST-Tie2-fusion protein (Upstate Biotechnology, Dundee, Scotland) can be used As substrate for the kinase reaction the biotinylated peptide biotin-Ahx-EPKDDAYPLYSDFG (C-terminus in amid form) was used which can be purchased e.g. from the company Biosynthan GmbH (Berlin-Buch, Germany). Detection of phosphorylated product is achieved specifically by a trimeric detection complex consisting of the phosphorylated substrate, streptavidin-XLent (SA-XLent) which binds to biotin, and Europium Cryptate-labeled anti-phosphotyrosine antibody PT66 which binds to phosphorylated tyrosine.
Tie-2 (3.5 ng/measurement point) was incubated for 60 min at 22° C. in the presence of 10 μM adenosine-tri-phosphate (ATP) and 1 μM substrate peptide (biotin-Ahx-EPKDDAYPLYSDFG-NH2) with different concentrations of test compounds (0 μM and concentrations in the range 0.001-20 μM) in 5 μl assay buffer [50 mM Hepes/NaOH pH 7, 10 mM MgCl2, 0.5 mM MnCl2, 1.0 mM dithiothreitol, 0.01% NP40, protease inhibitor mixture (“Complete w/o EDTA” from Roche, 1 tablet per 2.5 ml), 1% (v/v) dimethylsulfoxide]. The reaction was stopped by the addition of 5 μl of an aqueous buffer (25 mM Hepes/NaOH pH 7.5, 0.28% (w/v) bovine serum albumin) containing EDTA (90 mM) and the HTRF (Homogeneous Time Resolved Fluorescence) detection reagents streptavidine-XLent (0.2 μM, from Cis Biointernational, Marcoule, France) and PT66-Eu-Chelate (0.3 ng/μl; a europium-chelate labelled anti-phospho-tyrosine antibody from Perkin Elmer).
(§1) The resulting mixture was incubated 1 h at 22° C. to allow the binding of the biotinylated phosphorylated peptide to the streptavidine-XLent and the PT66-Eu-Chelate. Subsequently the amount of phosphorylated substrate peptide was evaluated by measurement of the resonance energy transfer from the PT66-Eu-Chelate to the streptavidine-XLent. Therefore, the fluorescence emissions at 620 nm and 665 nm after excitation at 350 nm was measured in a HTRF reader, e.g. a Rubystar (BMG Labtechnologies, Offenburg, Germany) or a Viewlux (Perkin-Elmer). The ratio of the emissions at 665 nm and at […] was taken as the measure for the amount of phosphorylated substrate peptide. The data were normalised (enzyme reaction without inhibitor=0% inhibition, all other assay components but no enzyme=100% inhibition) and IC50 values were calculated by a 4 parameter fit using an inhouse software.

human KDR = target: T2, human KDR (Homo sapiens, UniProt P35968); experiment: KDR Kinase Assay, HTRF (assay 5); settings: 10 μM ATP
T2 construct: GST-tagged recombinant kinase domain of the human KDR; GST; host or cells: SF-9 insect cells
Protocol: Assay 5: KDR Kinase Assay
KDR inhibitory activity of compounds of the present invention was quantified employing the KDR HTRF assay as described in the following paragraphs.
GST-tagged recombinant kinase domain of the human KDR expressed in SF-9 cells was used as kinase. As substrate for the kinase reaction the biotinylated peptide biotin-Ahx-DFGLARDMYDKEYYSVG (C-terminus in acid form) was used which can be purchased e.g. form the company Biosynthan GmbH (Berlin-Buch, Germany). KDR was incubated for 45 min at 22° C. in the presence of different concentrations of test compounds in 5 μl assay buffer [50 mM Hepes/NaOH pH 7.0, 25 mM MgCl2, 5 mM MnCl2, 1.0 mM dithiothreitol, 0.1 mM sodium ortho-vanadate, 10 μM adenosine-tri-phosphate (ATP), 0.5 μM substrate, 0.001% (v/v) Nonidet-P40 (Sigma), 1% (v/v) dimethylsulfoxide]. The concentration of KDR was adjusted depending of the activity of the enzyme lot and was chosen appropriate to have the assay in the linear range. The reaction was stopped by the addition of 5 μl of a solution of HTRF detection reagents (0.1 μM streptavidine-XLent and 2 nM PT66-Eu-Chelate, an europium-chelate labelled anti-phospho-tyrosine antibody from Perkin Elmer) in an aqueous EDTA-solution (125 mM EDTA, 0.2% (w/v) bovine serum albumin in 50 mM HEPES/NaOH pH 7.0).
as §1, with “substrate” for “substrate peptide”, “substrate.” for “substrate peptide.”

CDK2/CycE = target: T3, CDK2/CycE (Homo sapiens, UniProt P24941); experiment: CDK2 HTRF Assay (assay 4); settings: pIC50 = −log IC50 in molar concentration; 10 μM ATP
T3 construct: GST; purchased ProQinase GmbH (Freiburg, Germany); host or cells: Sf9 insect cells
Source text: CDK2/CycE—inhibitory activity of compounds of the present invention was quantified employing the CDK2/CycE HTRF assay as described in the following paragraphs.
Recombinant fusion proteins of GST and human CDK2 and of GST and human CycE, expressed in insect cells (Sf9) and purified by Glutathion-Sepharose affinity chromatography, were purchase from ProQinase GmbH (Freiburg, Germany). As substrate for the kinase reaction biotinylated peptide biotin-Ttds-YISPLKSPYKISEG (C-terminus in amid form) was used which can be purchased e.g. form the company JERINI peptide technologies (Berlin, Germany).
CDK2/CycE was incubated for 60 min at 22° C. in the presence of different concentrations of test compounds in 5 μl assay buffer [50 mM Tris/HCl pH […], 1.0 mM dithiothreitol, 0.1 mM sodium ortho-vanadate, 10 μM adenosine-tri-phosphate (ATP), 0.75 μM substrate, 0.01% (v/v) Nonidet-P40 (Sigma), 1% (v/v) dimethylsulfoxide]. The concentration of CDK2/CycE was adjusted depending of the activity of the enzyme lot and was chosen appropriate to have the assay in the linear range, typical concentrations were in the range of 1 ng/ml. The reaction was stopped by the addition of 5 μl of a solution of HTRF detection reagents (0.2 μM streptavidine-XLent and 3.4 nM Phospho-(Ser) CDKs Substrate Antibody [product #2324B, Cell Signalling Technology, Danvers, Mass., USA} and 4 nM Prot-A-EuK [Protein A labeled with Europium Cryptate from Cis biointernational, France, product no. 61PRAKLB]) in an aqueous EDTA-solution (100 mM EDTA, 800 mM KF, 0.2% (w/v) bovine serum albumin in 100 mM HEPES/NaOH pH 7.0).

Plk1 = target: T4, Plk1 (Homo sapiens, UniProt P53350); experiment: Plk1 Inhibition Assay, SPA (assay 6); settings: ATP 0.5 μM
T4 construct: N-terminally 6His-tagged full length Plk1; 6His (N); made in house
Source text: Assay 6: Plk1 Inhibition Assay
Plk1 phosphorylates serine/threonine residues of the biotinylated substrate bovine α-casein in the presence of [γ-^33P]ATP. Detection of the radiolabeled phosphorylated product is achieved by binding to streptavidine-coated SPA beads. The biotin moieties of biotinylated casein bind with high affinity to the streptavidine. The radiolabeled biotinylated casein produced by the Plk1 kinase reaction is able to generate a chemoluminescent signal when strepatavidine-mediated binding occurs to the scintillant-containing surface of the beads due to the close proximity of the radiolabel and the scintillant. […] The signals obtained are therefore indicative of the Plk1 kinase activity. Measurement is performed in a Perkin-Elmer TopCount instrument.
Enzyme: Purified human recombinant PLK1 [N-terminally 6His-tagged full length Plk1], prepared in house, conc.: 0.4 μg/μl Substrate: biotinylated bovine α-casein. Unbiotinylated casein obtained from Sigma was biotinylated by standard procedures using N-hydroxysuccinimide (NHS) ester of biotin. SPA-beads: PVT streptavidin SPA Beads, Amersham (# RPNQ0007) Reference compound: Wortmannin Assay plates: 384-well plates, small volume, white, Greiner (#784075) Buffer Materials Hepes: Sigma (# H-4034), MnCl2: Sigma (# M-1787), MgCl2: Sigma [# M-1028], NaCl: Merck [#1.06404.100], DTT: Biomol (#04010), NP40: Fluka (#74385), Complete EDTA-free: Roche [#1873580], ATP: Amersham (#27-2056), 33P-gamma-ATP: Perkin Elmer (Easytides # NEG/602H), EDTA: Sigma (# E-7889), PBS: Gibco (#14190-094), ATP for stopping solution: Sigma #(A-7699), DMSO: Merck [#8.02912.1000] Sealing tape: Greiner (#676080) Reader: TopCount instrument (PerkinElmer)
Assay buffer: 2.5 mM MnCl2, 5 mM MgCl2, 120 mM NaCl, 1 mM DTT, 50 mM Hepes pH 7.0, 0.01% NP40, 1× Complete (protease inhibitor cocktail) Enzyme working solution: 2.86 ng/μl PLK1 in assay buffer Substrate working solution: 1 μM ATP, 1.4 μM biotinylated a-Casein, 2.0 nCi/μl in assay buffer Stop/Detection solution: 50 μM ATP, 20 mM EDTA, 5 μg/μl beads in PBS 3. Assay protocol for small volume screen (all steps at 20° C., pipetted with CyBi-Well pipettor) • 1. 0.75 μl Compound in 30% or 100% DMSO • 2. addition of 3.5 μl Enzyme working solution • 3. addition of 3.5 μl Substrate working solution incubation 180 min • 4. addition of 10 μl Stop/Detection solution • 5. sealing of the plates, incubation 30 min, 10 min centrifugation at 1500 rpm • 6. Measurement in TopCount reader (60 sec/well)
Final concentrations, calculated for 7 μl reaction volume: PLK1 10 ng/well; a-Casein 0.7 μM; ATP 0.5 μM; gamma-33P-ATP 7 nCi/well, 2.5 mM MnCl2, 5 mM MgCl2, 120 mM NaCl, 1 mM DTT, 50 mM Hepes pH 7.0, 0.01% NP40, 1× Complete, 3% or 10% DMSO
The data were normalised (enzyme reaction without inhibitor=0% inhibition, enzyme reaction in the presence of 3.0 E-06 M wortmannin=100% inhibition) and IC50 values were calculated by a 4-parameter fit using an in house software.

T4 sequence (P53350 whole entry): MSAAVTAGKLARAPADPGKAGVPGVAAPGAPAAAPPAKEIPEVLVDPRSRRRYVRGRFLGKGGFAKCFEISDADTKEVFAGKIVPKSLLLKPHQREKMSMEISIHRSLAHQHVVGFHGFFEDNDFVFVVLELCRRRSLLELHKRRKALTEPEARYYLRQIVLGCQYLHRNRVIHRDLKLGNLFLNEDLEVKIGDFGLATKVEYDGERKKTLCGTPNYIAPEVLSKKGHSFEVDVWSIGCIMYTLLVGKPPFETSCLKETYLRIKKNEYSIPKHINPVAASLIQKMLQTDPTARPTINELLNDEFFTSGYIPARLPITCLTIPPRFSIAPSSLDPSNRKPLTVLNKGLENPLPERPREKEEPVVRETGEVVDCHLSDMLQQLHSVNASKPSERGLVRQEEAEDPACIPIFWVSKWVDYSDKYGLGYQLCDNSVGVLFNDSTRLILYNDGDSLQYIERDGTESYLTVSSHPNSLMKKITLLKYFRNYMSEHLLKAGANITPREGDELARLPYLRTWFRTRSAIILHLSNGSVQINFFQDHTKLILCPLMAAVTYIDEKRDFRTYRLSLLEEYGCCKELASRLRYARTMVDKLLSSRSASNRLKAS
T2 sequence (P35968 834-1162 limits assumed): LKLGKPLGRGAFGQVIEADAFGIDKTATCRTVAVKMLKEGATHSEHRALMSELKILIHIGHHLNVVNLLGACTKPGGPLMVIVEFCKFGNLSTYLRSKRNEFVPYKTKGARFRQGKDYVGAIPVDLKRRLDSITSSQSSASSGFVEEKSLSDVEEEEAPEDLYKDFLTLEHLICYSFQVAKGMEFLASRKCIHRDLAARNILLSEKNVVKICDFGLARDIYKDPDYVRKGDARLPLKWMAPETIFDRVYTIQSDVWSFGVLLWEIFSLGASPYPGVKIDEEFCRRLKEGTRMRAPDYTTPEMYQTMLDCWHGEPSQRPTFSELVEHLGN
T1 sequence (Q02763 770-1124 limits assumed): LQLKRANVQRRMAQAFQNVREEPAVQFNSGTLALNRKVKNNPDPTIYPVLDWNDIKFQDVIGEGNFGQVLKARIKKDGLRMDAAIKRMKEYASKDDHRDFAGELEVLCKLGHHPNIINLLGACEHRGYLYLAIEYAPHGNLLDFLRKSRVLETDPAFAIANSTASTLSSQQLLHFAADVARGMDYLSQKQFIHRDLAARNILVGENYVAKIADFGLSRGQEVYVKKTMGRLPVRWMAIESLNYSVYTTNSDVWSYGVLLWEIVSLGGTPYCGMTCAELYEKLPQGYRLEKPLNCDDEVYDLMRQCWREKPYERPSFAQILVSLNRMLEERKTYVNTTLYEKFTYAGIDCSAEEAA

## O=C(NCC#Cc1cnc2nc1NCCCNS(=O)(=O)c1cccc(c1)N2)Nc1cccc(C(F)(F)F)c1 [Example 4, 1-[3-(13,13-Dioxo-13λ^6-thia-2,4,8,12,19-pentaaza-tricyclo[12.3.1.1^3,7]-nonadeca-1(18),3(19),4,6,14,16-hexaen-6-yl)-prop-2-ynyl]-3-(3-trifluoromethyl-phenyl)-urea]
Tie-2
  IC50: ≤ 100 nM
Human KDR
  IC50: ≤ 100 nM
CDK2/CycE
  IC50: > 10000 nM
Plk1
  IC50: > 10000 nM

## O=C(NCC#Cc1cnc2nc1NCCCNS(=O)(=O)c1cccc(c1)N2)NCc1ccccc1 [Example 5, 1-Benzyl-3-[3-(13,13-dioxo-13λ^6-thia-2,4,8,12,19-pentaaza-tricyclo[12.3.1.1^3,7]-nonadeca-1(18),3(19),4,6,14,16-hexaen-6-yl)-prop-2-ynyl]-urea]
Tie-2
  IC50: ≤ 100 nM
Human KDR
  IC50: 100 to 1000 nM
CDK2/CycE
  IC50: > 10000 nM
Plk1
  IC50: > 10000 nM

## O=C(NCCC#Cc1cnc2nc1NCCCNS(=O)(=O)c1cccc(c1)N2)Nc1ccccc1 [Example 6, 1-[4-(13,13-Dioxo-13λ^6-thia-2,4,8,12,19-pentaaza-tricyclo[12.3.1.1^3,7]-nonadeca-1(18),3(19),4,6,14,16-hexaen-6-yl)-but-3-ynyl]-3-phenyl-urea]
Tie-2
  IC50: 100 to 1000 nM
Human KDR
  IC50: ≤ 100 nM
CDK2/CycE
  IC50: 1000 to 10000 nM
Plk1
  IC50: > 10000 nM

## O=S1(=O)NCCCNc2nc(ncc2C#CCNS(=O)(=O)c2cccc(Cl)c2Cl)Nc2cccc1c2 [Example 8, 2,3-Dichloro-N-[3-(13,13-dioxo-13λ^6-thia-2,4,8,12,19-pentaaza-tricyclo[12.3.1.1^3,7]-nonadeca-1(18),3(19),4,6,14,16-hexaen-6-yl)-prop-2-ynyl]-benzenesulfonamide]
Tie-2
  IC50: 100 to 1000 nM
Human KDR
  IC50: ≤ 100 nM
CDK2/CycE
  IC50: 1000 to 10000 nM
Plk1
  IC50: > 10000 nM

## Cc1ccc(F)c(S(=O)(=O)NCCC#Cc2cnc3nc2NCCCNS(=O)(=O)c2cccc(c2)N3)c1 [Example 13, N-[4-(13,13-Dioxo-13λ^6-thia-2,4,8,12,19-pentaaza-tricyclo[12.3.1.1^3,7]-nonadeca-1(18),3(19),4,6,14,16-hexaen-6-yl)-but-3-ynyl]-2-fluoro-5-methyl-benzene-sulfonamide]
Tie-2
  IC50: ≤ 100 nM
Human KDR
  IC50: ≤ 100 nM
CDK2/CycE
  IC50: > 10000 nM
Plk1
  IC50: > 10000 nM
